Series [1] addresses T1, recombinant full-length WRN protein (1-1432) (Homo sapiens, UniProt Q14191).
T1 construct: recombinant full-length WRN protein (1-1432)
As to the kind of experiment: WRN unwinding activity, fluorogenic 384-well assay (Example A). In kind it is biochemical. The settings on record: WRN unwinding activity, 4 hr; Table 2; read-out: 4 hr UNW pIC50 (converted). Put shortly: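 Read-out is end-point unwinding of a fluorophore/quencher duplex (ex 525, em 598 nm) after 60 min with 200 μM ATP and 12 nM DNA (2× stocks), EDTA stop. Compound first sat 4 h with 200 pM WRN (2× stock) in pH 8.0 Tris buffer; four-parameter fit gives pIC50.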

Series [2] can be described thus: Cell culture media unbound percentage and stability by rapid equilibrium dialysis (Example C). Type of series: in vitro ADME. To be noted: bovine, cell assay medium (RPMI-1640 with 10% fetal bovine serum), pH 7.4, rapid equilibrium dialysis, 4 hours at 37° C., read-out: Cell Culture Media Binding (% unbound). On the procedure:
(§1) It was observed that the compounds of the present disclosure are bound to cell assay media to various degrees, which would affect the cellular potency analysis in Example B. To measure free drug potency, concentrations used in the cell assays were corrected with the measured free fraction determined in the cell assay media. Compounds were incubated in a rapid equilibrium dialysis (RED) at a nominal concentration of 1 μM, using a dialysis buffer of phosphate-buffered saline (PBS, 100 mM sodium phosphate+150 mM sodium chloride, pH 7.4). The test compound was spiked into the medium. Aliquots were added to the donor wells of a RED plate in triplicate, and blank PBS was added to each receiver well, at volumes recommended by the manufacturer. Plates were incubated with shaking at 200 rpm for 4 hours at 37° C. The resultant samples were analysed by LC-MS/MS using a specific and sensitive method. Results were reported as analyte:internal standard peak area ratios (PARs), and the percent unbound was calculated with the following equation:
[formula] where D=the matrix dilution factor (D=1 for media); Apparent Fu=Crec/Cdon; Crec=PAR in receiver samples; Cdon=PAR in donor samples. Percent stability was calculated by:
(§2) [formula] where Cfinal=PAR in the T=240 minute sample; Cinitial=PAR in the T=0 minute sample. Cell culture media unbound percentage and calculated free drug potency of selected compounds along with their measured potency from Example B are shown in Table 3.
(In general: In equilibrium dialysis only unbound substance equilibrates across the membrane.)

Series [3] relates to SW48 human colorectal cancer cells (MSI-H cancer cells). As to the kind of experiment: SW48 cell viability, CellTiter-Glo, 120 hours (Example B). The settings on record: for CC50: Homo sapiens.
In series [4] the test system is SW48 human colorectal cancer cells. As to the kind of experiment: Calculated free drug potency in SW48 cell assay, corrected with media free fraction (Example C). In kind it is cell-based. The settings on record: for CC50: Homo sapiens, SW48, SW48 pCC50 corrected with measured free fraction in cell assay media. On the procedure:
as §1, §2

Where [5] appears, read: SW48, 120 h, read-out: SW48 pCC50, SW48 cell viability, 120 hours incubation (converted), Table 2.
Setting [6] is: SW48, read-out: SW48 pCC50, measured potency from Example B, as repeated in Table 3 (converted).

This is an account of results in patent US12662451B2, “Chemical compounds and uses thereof” (GLAXOSMITHKLINE INTELLECTUAL PROPERTY (NO.4) LIMITED, priority 2023, dated 2026).

The structures appear in SMILES notation. Like-named read-outs stand apart in the source and are kept apart here.

T1 sequence (Q14191 whole entry): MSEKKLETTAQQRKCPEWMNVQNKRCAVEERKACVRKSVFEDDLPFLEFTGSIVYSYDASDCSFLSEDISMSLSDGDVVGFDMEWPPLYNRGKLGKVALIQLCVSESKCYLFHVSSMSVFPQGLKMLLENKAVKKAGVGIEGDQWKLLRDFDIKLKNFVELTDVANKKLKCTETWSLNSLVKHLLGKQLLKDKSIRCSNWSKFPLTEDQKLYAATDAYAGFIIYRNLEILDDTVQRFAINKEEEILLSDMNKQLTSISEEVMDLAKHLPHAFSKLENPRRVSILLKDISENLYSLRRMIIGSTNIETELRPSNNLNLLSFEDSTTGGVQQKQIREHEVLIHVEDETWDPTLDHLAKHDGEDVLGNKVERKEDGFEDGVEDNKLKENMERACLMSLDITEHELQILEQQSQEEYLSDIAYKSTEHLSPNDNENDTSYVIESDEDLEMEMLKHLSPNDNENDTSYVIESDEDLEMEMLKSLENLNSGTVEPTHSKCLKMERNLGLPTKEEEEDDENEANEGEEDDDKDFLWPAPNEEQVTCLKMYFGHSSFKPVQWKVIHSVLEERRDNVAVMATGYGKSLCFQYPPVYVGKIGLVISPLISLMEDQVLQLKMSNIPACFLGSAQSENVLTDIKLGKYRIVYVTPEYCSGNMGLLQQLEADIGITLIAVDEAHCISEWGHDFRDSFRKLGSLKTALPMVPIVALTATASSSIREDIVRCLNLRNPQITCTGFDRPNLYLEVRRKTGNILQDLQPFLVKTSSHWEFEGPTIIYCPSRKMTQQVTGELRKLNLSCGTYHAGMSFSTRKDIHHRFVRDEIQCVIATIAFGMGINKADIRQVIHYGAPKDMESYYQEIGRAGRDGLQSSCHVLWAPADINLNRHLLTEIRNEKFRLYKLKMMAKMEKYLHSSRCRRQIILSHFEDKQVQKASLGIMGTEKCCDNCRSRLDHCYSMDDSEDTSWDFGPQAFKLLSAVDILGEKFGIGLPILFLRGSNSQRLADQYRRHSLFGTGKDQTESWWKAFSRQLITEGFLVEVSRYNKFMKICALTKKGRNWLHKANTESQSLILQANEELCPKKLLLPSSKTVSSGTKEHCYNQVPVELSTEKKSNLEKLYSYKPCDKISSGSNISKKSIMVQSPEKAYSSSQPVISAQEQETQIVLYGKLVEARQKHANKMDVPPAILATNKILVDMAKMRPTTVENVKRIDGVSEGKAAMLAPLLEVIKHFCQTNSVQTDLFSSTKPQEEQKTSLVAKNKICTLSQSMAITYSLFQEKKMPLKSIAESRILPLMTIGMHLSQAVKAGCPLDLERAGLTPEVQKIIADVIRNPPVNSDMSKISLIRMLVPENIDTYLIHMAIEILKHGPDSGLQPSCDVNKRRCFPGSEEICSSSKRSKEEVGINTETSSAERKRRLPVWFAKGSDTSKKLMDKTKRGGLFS

Take `Cc1nc2cc(S(=O)(=O)N(C)c3ccc([C@H]4C[C@@H](OC[C@H]5COCCO5)C[C@@H](C(=O)Nc5ccc(C(F)(F)F)cc5F)[C@@H]4C(=O)O)cc3)ccc2n1C` (relative stereo) [Example 327, (1R*,2R*,4R*,6S*)-4-(((R)-1,4-dioxan-2-yl)methoxy)-2-((2-fluoro-4-(trifluoromethyl)phenyl)carbamoyl)-6-(4-((N,1,2-trimethyl-1H-benzo[d]imidazole)-5-sulfonamido)phenyl)cyclohexane-1-carboxylic acid]: the IC50 in series [1] was 2.51 nM. For the same molecule, the fraction unbound at 4 h, 1 µM in series [2] was 0.296. Also, the CC50 was 200 nM in series [3] (setting [5]), 200 nM in series [3] (setting [6]) and 58.9 nM in series [4].
`COC12CC(CO[C@@H]3C[C@H](c4ccc(N(C)S(=O)(=O)c5ccc6c(c5)nc(C)n6C)cc4)[C@@H](C(=O)O)[C@H](C(=O)Nc4ccc(C(F)(F)F)cc4F)C3)(C1)C2` (relative stereo) [Example 332, rel-(1R,2R,4R,6S)-2-((2-fluoro-4-(trifluoromethyl)phenyl)carbamoyl)-4-((3-methoxybicyclo[1.1.1]pentan-1-yl)methoxy)-6-(4-((N,1,2-trimethyl-1H-benzo[d]imidazole)-5-sulfonamido)phenyl)cyclohexane-1-carboxylic acid]: the IC50 in series [1] was 3.98 nM. For the same molecule, in series [2], the fraction unbound at 4 h, 1 µM amounted to 0.122. The values for the CC50 in series [3] (setting [5]), in series [3] (setting [6]) and in series [4] were 100 nM, 100 nM and 12.3 nM, respectively.
Take `Cc1nc2cc(S(=O)(=O)N(C)c3ccc([C@H]4C[C@@H](N5CCCC(F)(F)C5)C[C@@H](C(=O)Nc5ccc(C(F)(F)F)cc5F)[C@@H]4C(=O)O)cc3)ccc2n1C` (relative stereo) [Example 353, rel-(1R,2R,4R,6S)-4-(3,3-difluoropiperidin-1-yl)-2-((2-fluoro-4-(trifluoromethyl)phenyl)carbamoyl)-6-(4-((N,1,2-trimethyl-1H-benzo[d]imidazole)-5-sulfonamido)phenyl)cyclohexane-1-carboxylic acid]: the IC50 in series [1] was 1.58 nM. In series [2], the fraction unbound at 4 h, 1 µM amounted to 0.113. For the same molecule, the CC50 in series [3] (setting [5]) is 39.8 nM; in series [3] (setting [6]), 39.8 nM; in series [4] it was 4.47 nM.
Consider `CCO[C@@H]1C[C@H](c2ccc(N(C)S(=O)(=O)c3ccc4c(c3)nc(Cl)n4C)cc2)[C@@H](C(=O)O)[C@H](C(=O)Nc2ccc(C(F)(F)F)cc2F)C1` (relative stereo) [Example 361, rel-(1R,2S,4R,6R)-2-(4-((2-chloro-N,1-dimethyl-1H-benzo[d]imidazole)-5-sulfonamido)phenyl)-4-ethoxy-6-((2-fluoro-4-(trifluoromethyl)phenyl)carbamoyl)cyclohexane-1-carboxylic acid], for which the IC50 in series [1] was 1.58 nM. In addition, in series [2], the fraction unbound at 4 h, 1 µM stood at 0.0632. Further, the CC50 in series [3] (setting [5]) is 501 nM; in series [3] (setting [6]) it was 501 nM; in series [4] it was 31.6 nM.
On to `Cc1nc2cc(S(=O)(=O)N(C)c3ccc([C@H]4CC(F)(F)C[C@@H](C(=O)Nc5ccc(C(F)(F)F)cc5F)[C@@H]4C(=O)O)cc3)ccc2n1C` (relative stereo) [Example 363, rel-(1R,2R,6S)-4,4-difluoro-2-((2-fluoro-4-(trifluoromethyl)phenyl)carbamoyl)-6-(4-((N,1,2-trimethyl-1H-benzo[d]imidazole)-5-sulfonamido)phenyl)cyclohexane-1-carboxylic acid], for which the IC50 in series [1] was 3.16 nM. Also, in series [2], the fraction unbound at 4 h, 1 µM turned out to be 0.216. Besides, the CC50 in series [3] (setting [5]) is 79.4 nM; in series [3] (setting [6]), 79.4 nM; in series [4] it was 17 nM.
`Cc1nc2cc(S(=O)(=O)N(C)c3ccc([C@H]4C[C@@H](CS(C)(=O)=O)C[C@@H](C(=O)Nc5ccc(C(F)(F)F)cc5F)[C@@H]4C(=O)O)cc3)ccc2n1C` (relative stereo) [Example 395, rel-(1R,2R,4R,6S)-2-((2-fluoro-4-(trifluoromethyl)phenyl)carbamoyl)-4-((methylsulfonyl)methyl)-6-(4-((N,1,2-trimethyl-1H-benzo[d]imidazole)-5-sulfonamido)phenyl)cyclohexane-1-carboxylic acid]: the IC50 in series [1] was 1.58 nM. Also, the fraction unbound at 4 h, 1 µM in series [2] is 0.0875. Further, the CC50 is 1000 nM in series [3] (setting [5]), 1000 nM in series [3] (setting [6]) and 87.1 nM in series [4].
Take `Cc1nc2cc(S(=O)(=O)N(C)c3ccc([C@@H]4C[C@H](N5CC6(F)CC5C6)C[C@H](C(=O)Nc5ccc(C(F)(F)F)cc5F)[C@H]4C(=O)O)cc3)ccc2n1C` (relative stereo) [Example 397, rel-(1R,2R,4R,6S)-2-((2-fluoro-4-(trifluoromethyl)phenyl)carbamoyl)-4-(4-fluoro-2-azabicyclo[2.1.1]hexan-2-yl)-6-(4-((N,1,2-trimethyl-1H-benzo[d]imidazole)-5-sulfonamido)phenyl)cyclohexane-1-carboxylic acid]: the IC50 in series [1] was 1.58 nM. For the same molecule, the fraction unbound at 4 h, 1 µM in series [2] came to 0.0527. For the same molecule, the figures for the CC50 in series [3] (setting [5]), in series [3] (setting [6]) and in series [4] were 316 nM, 316 nM and 16.6 nM, respectively.
As for `Cc1nc2cc(S(=O)(=O)N(C)c3ccc([C@H]4C[C@H](N5CC6(F)CC5C6)C[C@@H](C(=O)Nc5ccc(C(F)(F)F)cc5F)[C@@H]4C(=O)O)cc3)ccc2n1C` (relative stereo) [Example 400, rel-(1R,2R,4S,6S)-2-((2-fluoro-4-(trifluoromethyl)phenyl)carbamoyl)-4-(4-fluoro-2-azabicyclo[2.1.1]hexan-2-yl)-6-(4-((N,1,2-trimethyl-1H-benzo[d]imidazole)-5-sulfonamido)phenyl)cyclohexane-1-carboxylic acid], the IC50 in series [1] was 20 nM. In addition, the fraction unbound at 4 h, 1 µM in series [2] stood at 0.049. In addition, the CC50 in series [3] (setting [5]) is 7940 nM; in series [3] (setting [6]), 7940 nM; in series [4], 389 nM.
In the case of `CN(c1ccc([C@H]2CCC[C@@H](C(=O)Nc3ccc(C(F)(F)F)cc3F)[C@@H]2C(=O)O)cc1)S(=O)(=O)c1ccc2c(c1)ncn2C` (single isomer, unassigned) [Example 88], in series [1], the IC50 is 2.51 nM. Besides, the fraction unbound at 4 h, 1 µM in series [2] is 0.0297. Also, the CC50 in series [3] (setting [5]) was 398 nM; in series [3] (setting [6]), 398 nM; in series [4], 11.7 nM.
As to `CC(=O)N1CCc2cc(S(=O)(=O)N(C)c3ccc([C@H]4CCC[C@@H](C(=O)Nc5ccc(C(F)(F)F)cc5F)[C@@H]4C(=O)O)cc3)ccc21` (single isomer, unassigned) [Example 90], the IC50 in series [1] is 3.98 nM. Besides, in series [2], the fraction unbound at 4 h, 1 µM came out at 0.0553. Besides, the CC50 in series [3] (setting [5]) is 1260 nM; in series [3] (setting [6]) it was 1260 nM; in series [4], 69.2 nM.
On to `Cc1nc2cc(S(=O)(=O)N(C)c3ccc([C@H]4C[C@@H]5OCC[C@@H]5[C@@H](C(=O)Nc5ccc(C(F)(F)F)cc5F)[C@@H]4C(=O)O)cc3)ccc2n1C` (single isomer, unassigned) [Example 157], for which the IC50 in series [1] was 2.51 nM. For the same molecule, in series [2], the fraction unbound at 4 h, 1 µM turned out to be 0.242. Also, the “SW48 pCC50” value is reported as 6.9 in series [3] (SW48 cell viability, 120 hours incubation, Table 2) and 6.9 in series [3] (measured potency from Example B, as repeated in Table 3). Moreover, the “Free Drug SW48 pCC50” value in series [4] (SW48 pCC50 corrected with measured free fraction in cell assay media) is listed as 7.50.
Take `Cc1nc2cc(S(=O)(=O)N(C)c3ccc([C@@H]4CCC[C@H](C(=O)Nc5c(F)cc(C(C)C)cc5F)[C@H]4C(=O)O)cc3)ccc2n1C` (single isomer, unassigned) [Example 171]: in series [1], the IC50 is 3.16 nM. Besides, in series [2], the fraction unbound at 4 h, 1 µM was found to be 0.0634. For the same molecule, the figures for the CC50 in series [3] (setting [5]), in series [3] (setting [6]) and in series [4] were 794 nM, 794 nM and 50.1 nM, respectively.
